Test results taken from paper PMC3164524 (Biochemistry, 2011).
Square brackets hold non-standard residues; d marks the D form. Peptide text beside a SMILES is read from it. pY = N[C@@H](Cc1ccc(OP(=O)(O)O)cc1)C(=O)O

Target: T1, SHP-2 N-SH2 domain (Homo sapiens, UniProt Q06124)
T1 sequence (Q06124 1-106): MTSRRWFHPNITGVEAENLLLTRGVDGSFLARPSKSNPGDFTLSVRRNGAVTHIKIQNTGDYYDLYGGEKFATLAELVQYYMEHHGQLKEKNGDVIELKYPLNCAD
Assay: SPR competition assay against immobilized pYAQL peptide
Type: binding

IC50: 600 ± 100 nM
Structure (SMILES): CC(C)C[C@H](NC(=O)[C@H](CCC(N)=O)NC(=O)[C@H](C)NC(=O)[C@H](Cc1ccc(OP(=O)(O)O)cc1)NC(=O)[C@H](CC(N)=O)NC(=O)[C@H](CC(C)C)NC(=O)[C@@H](N)CCCNC(=N)N)C(=O)N[C@@H](Cc1c[nH]c2ccccc12)C(=O)N[C@@H](Cc1c[nH]cn1)C(=O)N[C@@H](CCCNC(=N)N)C(N)=O [pYAQL] (H-RLN[pY]AQLWHR-NH2)
